Data set [1] addresses T1, ENL YEATS domain (association with H3K27cr) (Homo sapiens, UniProt Q03111).
T1 sequence (Q03111 1-148): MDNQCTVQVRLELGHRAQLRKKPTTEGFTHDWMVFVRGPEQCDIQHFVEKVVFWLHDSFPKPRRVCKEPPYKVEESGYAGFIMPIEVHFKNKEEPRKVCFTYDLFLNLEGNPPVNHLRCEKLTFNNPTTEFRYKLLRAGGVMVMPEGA
Briefly: biochemical. The conditions noted are these: ENL (YEATS)-H3K27cr HTRF (IC50, μM). On the technique in general: Time-resolved FRET reads energy transfer from a long-lived donor to a nearby acceptor.

The target of data set [2] is T2, ENL protein (Homo sapiens, UniProt Q03111).
T2 construct: performed on endogenous ENL protein by treating wild-type OCI-AML-2 cells with drug; endogenous in cells; host or cells: OCI/AML-2
T2 sequence (Q03111 1-559): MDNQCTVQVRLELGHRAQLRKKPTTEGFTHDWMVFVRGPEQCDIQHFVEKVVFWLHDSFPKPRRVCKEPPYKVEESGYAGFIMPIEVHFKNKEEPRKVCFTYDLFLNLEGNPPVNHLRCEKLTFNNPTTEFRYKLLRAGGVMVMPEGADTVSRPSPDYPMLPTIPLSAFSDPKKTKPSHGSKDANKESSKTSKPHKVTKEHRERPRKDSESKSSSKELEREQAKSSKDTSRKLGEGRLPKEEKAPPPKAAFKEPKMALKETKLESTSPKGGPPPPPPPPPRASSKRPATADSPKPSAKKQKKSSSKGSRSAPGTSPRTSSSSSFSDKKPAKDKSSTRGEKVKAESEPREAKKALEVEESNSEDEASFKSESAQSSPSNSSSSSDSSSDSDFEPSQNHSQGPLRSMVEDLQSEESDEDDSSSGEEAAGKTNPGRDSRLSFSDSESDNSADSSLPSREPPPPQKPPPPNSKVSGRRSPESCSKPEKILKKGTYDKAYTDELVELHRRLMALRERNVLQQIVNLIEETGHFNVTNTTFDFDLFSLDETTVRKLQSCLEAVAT
Kind of data set: ENL immunoblot CETSA on endogenous ENL in OCI/AML-2 cells. Format: cell-based. The conditions noted are these: 10 μM. (In general: In western blotting, separated proteins are transferred to a membrane and probed.)
Method: Cellular thermal shift assay (CETSA). […] Briefly, cells were treated with drug, washed with PBS, heated to various temperatures in a thermocycler, cooled to room temperature, lysed by three rounds of freeze-thaw, and then clarified lystaes were subjected to immunoblot analysis.

For data set [3], the system named is MV4; 11 cells. Briefly: MV4;11 proliferation assay (total viable cell count). Format: cell-based. The conditions noted are these: listed as Compound of Formula 69. On the procedure:
Proliferation assay. MV4; 11 cells were seeded at 20,000 cells/well in 96-well plates and treated with vehicle or drug, counted and reseeded at 20,000 cells/well every 3-4 days with freshly added vehicle or drug.

In data set [4] the target is T3, ENL(YEATS)-HiBiT (Homo sapiens, UniProt Q03111).
T3 sequence (Q03111 1-138 limits assumed): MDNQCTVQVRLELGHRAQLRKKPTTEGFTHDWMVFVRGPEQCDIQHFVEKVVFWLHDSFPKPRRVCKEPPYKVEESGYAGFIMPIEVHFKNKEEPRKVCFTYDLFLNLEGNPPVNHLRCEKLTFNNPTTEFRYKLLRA
Kind of data set: cell-based.

A short description of data set [5]: Half-life in mouse liver microsomes. The format is in vitro ADME. The conditions noted are these: read-out: t1/2 (min) mouse liver microsomes.
Data set [6] can be described thus: Half-life in human liver microsomes. The format is in vitro ADME.
[7] abbreviates: read-out: t1/2 (min) human liver microsomes.

Structures are written as SMILES.

By IC50 is commonly meant the midpoint of a concentration-inhibition curve. A higher IC50 goes with lower potency.

As for `O=C(NC1CCC1)c1ccc2nc(-c3cccc(NS(=O)(=O)NCCc4c[nH]cn4)c3)cn2c1` [Compound 69, 2-(3-((N-(2-(1H-imidazol-4-yl)ethyl)sulfamoyl)amino)phenyl)-N-cyclobutylimidazo[1,2-a]pyridine-6-carboxamide], the values for the IC50 in data set [1] (Table 1), in data set [1] (Table 2) and in data set [4] were 0.1 µM, 0.1 µM and 8400 nM, respectively. Besides, the “stabilization of ENL protein, immunoblot analysis of CETSA” value in data set [2] was “stabilization of ENL protein”. Moreover, in data set [3], the “inhibition of MV4:11 proliferation, total viable cell count” value is recorded as “Inhibition of MV4:11 proliferations”.
Consider `O=C(NC1CCC1)c1ccc2nc(-c3cccc(NS(=O)(=O)CCN4CCCCC4)c3)cn2c1` [Compound 106], for which the IC50 in data set [1] (Table 1) worked out at 0.027 µM; in data set [1] (Table 2), 0.027 µM; in data set [4], 1240 nM. In addition, the half-life in data set [5] came to 7.83 min.
Consider `O=C(NC1CCC1)c1ccc2nc(-c3cccc(S(=O)(=O)NCCN4CCCCC4)c3)cn2c1` [Compound 107], for which the IC50 was found to be 0.635 µM in data set [1] (Table 1), 0.635 µM in data set [1] (Table 2) and 2020 nM in data set [4]. The half-life in data set [5] is 6.15 min.
Take `O=C(NCCN1CCCCC1)c1cccc(-c2cn3cc(C(=O)NC4CCC4)ccc3n2)c1` [Compound 108]: the results for the IC50 in data set [1] (Table 1), in data set [1] (Table 2) and in data set [4] were 0.124 µM, 0.124 µM and 630 nM, respectively. Also, the half-life came out at 23.8 min in data set [6] (setting [7]); 537 min in data set [6] (without NADPH, read-out: t1/2 (min) human liver microsomes (without NADPH)); 28 min in data set [5].
Turning to `O=C(CCN1CCCCC1=O)Nc1cccc(-c2cn3cc(C(=O)NC4CCC4)ccc3n2)c1` [Compound 109], the IC50 turned out to be 0.265 µM in data set [1] (Table 1), 0.265 µM in data set [1] (Table 2) and 8130 nM in data set [4]. Further, the half-life in data set [5] came to 3.46 min.
For the compound `O=C(CCN1CCOCC1)Nc1cccc(-c2cn3cc(C(=O)NC4CCC4)ccc3n2)c1` [Compound 110], the IC50 was 0.306 µM in data set [1] (Table 1), 0.306 µM in data set [1] (Table 2) and 5010 nM in data set [4]. Also, the half-life in data set [5] is 19.9 min.
As to `O=C(CN1CCCCC1)Nc1cccc(-c2cn3cc(C(=O)NC4CCC4)ccc3n2)c1` [Compound 112], the figures for the IC50 in data set [1] (Table 1), in data set [1] (Table 2) and in data set [4] were 0.172 µM, 0.172 µM and 1070 nM, respectively. For the same compound, in data set [5], the half-life is 6.16 min.
As for `O=C(NCCN1CCCCC1)Nc1cccc(-c2cn3cc(C(=O)NC4CCC4)ccc3n2)c1` [Compound 113], the concentration for half-maximal inhibition (IC50) in data set [1] (Table 1) was 0.153 µM; in data set [1] (Table 2), 0.153 µM; in data set [4], 2630 nM. Also, the half-life came out at 104 min in data set [6] (setting [7]) and 85.9 min in data set [5].
As to `O=C(CCN1CCNCC1)Nc1cccc(-c2cn3cc(C(=O)NC4CCC4)ccc3n2)c1` [Compound 114], the IC50 in data set [1] (Table 1) stood at 0.261 µM; in data set [1] (Table 2), 0.261 µM; in data set [4], 4500 nM. Also, the half-life in data set [6] (setting [7]) was 2960 min; in data set [5], 323 min.

These data come from patent US20220274980A1, “PHARMACOLOGICAL INHIBITORS OF THE ENL YEATS DOMAIN” (priority 2019, published 2022).
